Results: ChEMBL document CHEMBL2424570, “New synthetic approach to coumarino[4,3-b]pyridine systems and potential cytotoxic evaluation” (Med Chem Res, 2013)
pIC50: −log10 of the molar value.

Columns and labels:
Ehrlich [1] = experiment: Ratio of 5-fluorouracil IC50 to compound IC50 for mouse EAC cells; format: functional
Ehrlich [2] = experiment: Ratio of 5-fluorouracil IC100 to compound IC100 for mouse EAC cells; format: functional
Ehrlich [3] = experiment: Ratio of 5-fluorouracil IC25 to compound IC25 for mouse EAC cells; format: functional
[4] = Antitumor activity against mouse EAC cells by trypan blue exclusion assay; format: functional, cell-based, Ehrlich; conditions: for IC25 / pIC50: Mus musculus, Ehrlich

| Compound | Ratio IC50 (Ehrlich [1]) | Ratio (Ehrlich [2]) | Ratio (Ehrlich [3]) | IC100 [4] | IC25 [4] | pIC50 [4] |
| --- | --- | --- | --- | --- | --- | --- |
| O=c1oc2ccccc2c2nc3c(c(-c4ccccc4)c12)CCC/C3=C\c1ccccc1 | 3 | 3 | 3 | 0.24 µM | 0.06 µM | 6.92 |
| Nc1c(C(c2ccc(Cl)cc2)c2c(N)c3ccccc3oc2=O)c(=O)oc2ccccc12 | 3 | 3 | 3 | 0.25 µM | 0.06 µM | 6.92 |
| O=c1oc2ccccc2c2nc(/C=C/c3ccccc3)cc(-c3ccccc3)c12 | 3 | 3 | 3 | 0.27 µM | 0.06 µM | 6.89 |
| O=c1[nH]cc(F)c(=O)[nH]1 [FLUOROURACIL] | – | – | – | 0.77 µM | 0.19 µM | 6.42 |
| O=c1oc2ccccc2c2nc(-c3ccccc3)cc(-c3ccc([N+](=O)[O-])cc3)c12 | 3 | 3 | 3 | 0.25 µM | 0.06 µM | 6.92 |
| O=C1c2ccccc2-c2nc3c(c(-c4ccccc4)c21)c(=O)oc1ccccc13 | 3 | 3 | 3 | 0.27 µM | 0.06 µM | 6.89 |
